# From ChEMBL document CHEMBL1201862, “PubChem BioAssay data set” (2004)
#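 Tested at 5 concentrations; 48 h exposure; 96-well plates; endpoints linearly interpolated, else capped at highest concentration. GI50 = concentration required for 50% inhibition of growth.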 Activity calls are given as the source filed them. Rule as the data show it: active = GI50 up to about 1.1 µM and inactive = higher.
# Columns and labels:
# Assay in all cases: NCI anticancer screen, dose series, 48 h
# SK-MEL-28 = test system: SK-MEL-28
# NCI-H460 = test system: NCI-H460
# COLO 205 = test system: COLO 205
# DU-145 = test system: DU-145
# A549 = test system: A549
# NCI-H522 = test system: NCI-H522
# HL-60 = test system: HL-60
# HCC 2998 = test system: HCC 2998
# U-251 = test system: U-251
# HOP-92 = test system: HOP-92
# SF-539 = test system: SF-539
# HOP-62 = test system: HOP-62
# Hs-578T = test system: Hs-578T
# Malme-3M = test system: Malme-3M
# MDA-MB-231 = test system: MDA-MB-231
# UO-31 = test system: UO-31
# MDA-MB-435 = test system: MDA-MB-435
# A498 = test system: A498
# UACC-257 = test system: UACC-257
SMILES,GI50 (SK-MEL-28),GI50 (NCI-H460),GI50 (COLO 205),GI50 (DU-145),GI50 (A549),GI50 (NCI-H522),GI50 (HL-60),GI50 (HCC 2998),GI50 (U-251),GI50 (HOP-92),GI50 (SF-539),GI50 (HOP-62),GI50 (Hs-578T),GI50 (Malme-3M),GI50 (MDA-MB-231),GI50 (UO-31),GI50 (MDA-MB-435),GI50 (A498),GI50 (UACC-257)
O=C(O)CCCSc1nc2ccccc2s1,> 100 µM (inactive),> 100 µM (inactive),> 100 µM (inactive),> 100 µM (inactive),> 100 µM (inactive),> 100 µM (inactive),> 100 µM (inactive),> 100 µM (inactive),> 100 µM (inactive),> 100 µM (inactive),> 100 µM (inactive),> 100 µM (inactive),> 100 µM (inactive),> 100 µM (inactive),> 100 µM (inactive),> 100 µM (inactive),> 100 µM (inactive),> 100 µM (inactive),> 100 µM (inactive)
Clc1ccc(NCNC2Nc3ccccc3N2)cc1Cl,70.5 µM (inactive),24.2 µM (inactive),35.8 µM (inactive),> 100 µM (inactive),56.9 µM (inactive),22.4 µM (inactive),41.3 µM (inactive),73.6 µM (inactive),52.5 µM (inactive),48.4 µM (inactive),48.5 µM (inactive),72.1 µM (inactive),> 100 µM (inactive),92.9 µM (inactive),16.7 µM (inactive),27.4 µM (inactive),20.6 µM (inactive),> 100 µM (inactive),> 100 µM (inactive)
CCN(CC)C(=O)C1=C(C)NC(C)=C(C(=O)N(CC)CC)C1,> 100 µM (inactive),> 100 µM (inactive),> 100 µM (inactive),> 100 µM (inactive),> 100 µM (inactive),> 100 µM (inactive),> 100 µM (inactive),> 100 µM (inactive),> 100 µM (inactive),> 100 µM (inactive),> 100 µM (inactive),> 100 µM (inactive),44.7 µM (inactive),> 100 µM (inactive),39.4 µM (inactive),81.1 µM (inactive),81.1 µM (inactive),> 100 µM (inactive),> 100 µM (inactive)
O=C1OC(CN2CCN(c3ccccc3)CC2)CN1C(=S)Nc1ccccc1 (centres undefined),> 100 µM (inactive),23.8 µM (inactive),> 100 µM (inactive),> 100 µM (inactive),> 100 µM (inactive),> 100 µM (inactive),> 100 µM (inactive),> 100 µM (inactive),> 100 µM (inactive),> 100 µM (inactive),> 100 µM (inactive),> 100 µM (inactive),> 100 µM (inactive),> 100 µM (inactive),> 100 µM (inactive),> 100 µM (inactive),> 100 µM (inactive),> 100 µM (inactive),> 100 µM (inactive)
Fc1ccccc1/N=c1\oc2ccc(Br)cc2cc1-c1nc2ccccc2[nH]1,14.5 µM (inactive),15 µM (inactive),35.6 µM (inactive),17.1 µM (inactive),7.01 µM (inactive),1.75 µM (inactive),> 100 µM (inactive),10.4 µM (inactive),6 µM (inactive),18 µM (inactive),1.87 µM (inactive),3.65 µM (inactive),0.485 µM (active),2.32 µM (inactive),6.7 µM (inactive),8.04 µM (inactive),23.1 µM (inactive),2.58 µM (inactive),> 19.8 µM (inactive)
O=C(Nc1nnc(-c2ccc(Cl)cc2)o1)C(SC(=S)N1CCCCC1)c1ccccc1 (centres undefined),18.1 µM (inactive),7.6 µM (inactive),24.4 µM (inactive),25.7 µM (inactive),16.4 µM (inactive),17.6 µM (inactive),8.59 µM (inactive),21.4 µM (inactive),13 µM (inactive),22.7 µM (inactive),30 µM (inactive),25.9 µM (inactive),26.2 µM (inactive),3.11 µM (inactive),19.4 µM (inactive),10.5 µM (inactive),21.2 µM (inactive),18.5 µM (inactive),21.7 µM (inactive)
O=[N+]([O-])c1cccc2nc3ccccc3c(NCCC[N+]3([O-])CCOCC3)c12,0.29 µM (active),0.0942 µM (active),0.0731 µM (active),0.206 µM (active),0.0959 µM (active),0.0631 µM (active),0.245 µM (active),0.0128 µM (active),0.209 µM (active),0.0935 µM (active),0.275 µM (active),0.119 µM (active),0.433 µM (active),0.162 µM (active),0.247 µM (active),1.67 µM (inactive),0.157 µM (active),0.164 µM (active),0.351 µM (active)
CC1CNC(c2ccc(COc3ccc(C4=NC(C)CN4)cc3)cc2)=N1 (centres undefined),41.8 µM (inactive),23.4 µM (inactive),> 100 µM (inactive),> 100 µM (inactive),21.2 µM (inactive),39 µM (inactive),> 100 µM (inactive),46.5 µM (inactive),28.5 µM (inactive),> 100 µM (inactive),54.8 µM (inactive),32.8 µM (inactive),22.9 µM (inactive),27.6 µM (inactive),45.9 µM (inactive),> 100 µM (inactive),61 µM (inactive),> 100 µM (inactive),16.9 µM (inactive)
COCn1c2ccc(OC(C)=O)cc2c2c(=O)oc(C)nc21,> 100 µM (inactive),> 100 µM (inactive),> 100 µM (inactive),> 100 µM (inactive),> 100 µM (inactive),> 100 µM (inactive),> 100 µM (inactive),> 100 µM (inactive),> 100 µM (inactive),> 100 µM (inactive),> 100 µM (inactive),> 100 µM (inactive),> 100 µM (inactive),> 100 µM (inactive),> 100 µM (inactive),> 100 µM (inactive),> 100 µM (inactive),50.4 µM (inactive),> 100 µM (inactive)
O=C(CC(C(=O)c1ccco1)c1cccs1)c1cccs1 (centres undefined),42.7 µM (inactive),80.5 µM (inactive),51.9 µM (inactive),> 100 µM (inactive),41.7 µM (inactive),41.9 µM (inactive),27.2 µM (inactive),49.2 µM (inactive),67.5 µM (inactive),59.4 µM (inactive),> 100 µM (inactive),87.7 µM (inactive),49.9 µM (inactive),96.2 µM (inactive),> 100 µM (inactive),30.7 µM (inactive),35.9 µM (inactive),96.2 µM (inactive),24.8 µM (inactive)
CN(C)CCNc1ccc2ncnc3c2c1C(=O)c1ccccc1-3,2.33 µM (inactive),0.443 µM (active),0.433 µM (active),0.476 µM (active),0.274 µM (active),0.232 µM (active),2.58 µM (inactive),0.348 µM (active),0.49 µM (active),1.12 µM (active),0.667 µM (active),0.242 µM (active),0.989 µM (active),0.166 µM (active),0.337 µM (active),0.468 µM (active),0.535 µM (active),1.64 µM (inactive),2.09 µM (inactive)
